Assays:
Type in all cases: in vivo
[1] = test system: cotton aphid (Aphis gossypii); assay: Aphis gossypii - spray test; details: for Efficacy in % after 6 days: mortality after 6 days; for Efficacy in % after 1 day: mortality after 1 day, cotton leaves
Protocol: (§1) Formula for the Efficacy of the Combination of Two Compounds • The expected efficacy of a given combination of two compounds is calculated as follows (see Colby, S. R., “Calculating Synergistic and antagonistic Responses of Herbicide Combinations”, Weeds 15, pp. 20-22, 1967): • If • X is the efficacy expressed in % mortality of the untreated control for test compound A at a concentration of m ppm respectively m g/ha, • Y is the efficacy expressed in % mortality of the untreated control for test compound B at a concentration of n ppm respectively n g/ha, • E is the efficacy expressed in % mortality of the untreated control using the mixture of A and B at m and n ppm respectively m and n g/ha, • then is
(§2) [formula] • If the observed insecticidal efficacy of the combination is higher than the one calculated as “E”, then the combination of the two compounds is more than additive, i.e. there is a synergistic effect.
Aphis gossypii—Spray Test
(§3) Solvent: 7 parts by weight of dimethylformamide
(§4) Emulsifier: alkylaryl polyglycol ether
(§5) To produce a suitable preparation of active compound, 1 part by weight of active compound is mixed with the stated amount of solvent and is diluted with water, containing an emulsifier concentration of 1000 ppm, to the desired concentration. Further test concentrations are prepared by dilution with emulsifier containing water.
Cotton leaves (Gossypium hirsutum) which are heavily infested with the cotton aphid (Aphis gossypii) are treated by being sprayed with the preparation of the active compound of the desired concentration.
After the specified period of time the mortality in % is determined. 100% means all the aphids have been killed; 0% means none of the aphids have been killed. The mortality values determined thus are recalculated using the Colby-formula (see above).

[2] = test system: caterpillars of the fall army worm (Spodoptera frugiperda); assay: Spodoptera frugiperda - spray test; details: for Efficacy in % after 1 day: mortality after 1 day; for Efficacy in % after 2 days: mortality after 2 days; for Efficacy in % after 3 days: mortality after 3 days; for Efficacy in % after 6 days: mortality after 6 days
Protocol: as §1, §2
Spodoptera frugiperda—Spray Test
as §3, §4, §5
Cotton leaves (Gossypium hirsutum) are treated by being sprayed with the preparation of the active compound of the desired concentration and are infested with caterpillars of the fall army worm (Spodoptera frugiperda).
After the specified period of time mortality in % is determined. 100% means all the caterpillars have been killed and 0% means none of the caterpillars have been killed. The mortality values determined thus are recalculated using the Colby-formula (see above).

[3] = test system: two spotted spidermite (Tetranychus urticae); assay: Tetranychus urticae - spray test OP-resistant; details: for Efficacy in % after 6 days: mortality after 6 days; for Efficacy in % after 2 days: mortality after 2 days
Protocol: as §1, §2
Tetranychus urticae—Spray Test OP-Resistant
as §5, with “solvents” for “solvent”
French bean (Phaseolus vulgaris) leaf disks infected with all instars of the two spotted spidermite (Tetranychus urticae), are sprayed with a preparation of the active ingredient of the desired concentration.
After the specified period of time, mortality in % is determined. 100% means all spider mites have been killed and 0% means none of the spider mites have been killed. The mortality values determined thus are recalculated using the Colby-formula (see above).

Cc1cc(F)c(N=C2SCC(=O)N2CC(F)(F)F)cc1[S+]([O-])CC(F)(F)F (stereo not shown) [Cpd of formula (I)]
Efficacy in % after 6 days ([1]; 0.8 ppm): 0%
Efficacy in % after 1 day ([1]; 1.6 ppm): 0%
Efficacy in % after 6 days ([1]; 1.6 ppm): 0%
Efficacy in % after 1 day ([2]; 0.3 ppm): 0%
Efficacy in % after 2 days ([2]; 0.3 ppm): 0%
Efficacy in % after 3 days ([2]; 0.3 ppm): 0%
Efficacy in % after 6 days ([2]; 0.3 ppm): 0%
Efficacy in % after 1 day ([2]; 0.6 ppm): 0%
Efficacy in % after 2 days ([2]; 0.6 ppm): 0%
Efficacy in % after 3 days ([2]; 0.6 ppm): 0%
Efficacy in % after 6 days ([2]; 0.6 ppm): 0%
Efficacy in % after 1 day ([2]; 1.2 ppm): 0%
Efficacy in % after 3 days ([2]; 1.2 ppm): 0%
Efficacy in % after 6 days ([2]; 1.2 ppm): 0%
Efficacy in % after 6 days ([3]; 0.1 g ai/ha): 0%
Efficacy in % after 2 days ([3]; 0.4 g ai/ha): 0%
Efficacy in % after 2 days ([3]; 1.6 g ai/ha): 0%
Efficacy in % after 2 days ([3]; 6.4 g ai/ha): 0%

CNC(=O)c1cc(C#N)cc(C)c1NC(=O)c1cc(Br)nn1-c1ncccc1Cl [Cyantraniliprole, 3-bromo-1-(3-chloro-2-pyridyl)-4′-cyano-2′-methyl-6′-(methylcarbamoyl)pyrazole-5-carboxanilide]
Efficacy in % after 2 days ([2]; 0.12 ppm): 0%
Efficacy in % after 3 days ([2]; 0.12 ppm): 0%
Efficacy in % after 6 days ([2]; 0.12 ppm): 10%
Efficacy in % after 1 day ([2]; 0.24 ppm): 0%
Efficacy in % after 2 days ([2]; 0.24 ppm): 0%
Efficacy in % after 3 days ([2]; 0.24 ppm): 10%
Efficacy in % after 6 days ([2]; 0.24 ppm): 20%
Efficacy in % after 3 days ([2]; 0.48 ppm): 60%
Efficacy in % after 6 days ([2]; 0.48 ppm): 70%
Efficacy in % after 2 days ([3]; 0.2 g ai/ha): 0%
Efficacy in % after 2 days ([3]; 0.8 g ai/ha): 0%
Efficacy in % after 2 days ([3]; 3.2 g ai/ha): 0%

CNC(=O)c1cc(C#N)cc(C)c1NC(=O)c1cc(Cn2nnc(C(F)(F)F)n2)nn1-c1ncccc1Cl [Tetraniliprole, 1-(3-chloro-2-pyridyl)-4′-cyano-2′-methyl-6′-methylcarbamoyl-3-{[5-(trifluoromethyl)-2H-tetrazol-2-yl]methyl}pyrazole-5-carboxanilide]
Efficacy in % after 1 day ([2]; 0.06 ppm): 0%
Efficacy in % after 2 days ([2]; 0.06 ppm): 60%
Efficacy in % after 1 day ([2]; 0.12 ppm): 30%
Efficacy in % after 1 day ([2]; 0.24 ppm): 40%
Efficacy in % after 6 days ([3]; 0.05 g ai/ha): 0%
Efficacy in % after 2 days ([3]; 0.2 g ai/ha): 0%
Efficacy in % after 2 days ([3]; 0.8 g ai/ha): 0%
Efficacy in % after 2 days ([3]; 3.2 g ai/ha): 0%

CNC(=O)c1cc(Cl)cc(C)c1NC(=O)c1cc(Br)nn1-c1ncccc1Cl [Chlorantraniliprole, 3-bromo-4′-chloro-1-(3-chloro-2-pyridyl)-2′-methyl-6′-(methylcarbamoyl)pyrazole-5-carboxanilide]
Efficacy in % after 1 day ([1]; 8 ppm): 10%
Efficacy in % after 6 days ([1]; 8 ppm): 45%
Efficacy in % after 2 days ([3]; 0.2 g ai/ha): 0%
Efficacy in % after 2 days ([3]; 0.8 g ai/ha): 0%
Efficacy in % after 2 days ([3]; 3.2 g ai/ha): 0%

Source: patent publication US11191271B2, “Active compound combinations having insecticidal/acaricidal properties” (priority 2017, dated 2021)
